Key:
eotaxin-2 (CCL24) = target: T1, eotaxin-2 (CCL24) (Homo sapiens, UniProt O00175); test: BIAcore: inhibition of Eotaxin-2 binding to immobilized heparin; conditions: % relative to heparin concentration required to inhibit chemokine binding by 50%; heparin set at 100%
T1 construct: host or cells: E. coli
T1 sequence (O00175 27-119): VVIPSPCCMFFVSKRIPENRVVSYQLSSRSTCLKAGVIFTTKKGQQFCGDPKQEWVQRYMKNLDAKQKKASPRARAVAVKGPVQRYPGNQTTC
Text: (§1) The optical phenomenon of surface plasmon resonance is used to monitor physical interactions between molecules. Passing a solution of a potential protein ligand (e.g. IL-4, IL-5, eotaxin-1, eotaxin-2, IL-8 or MCP-1) over a sensor surface to which a target (e.g. heparin) is coupled monitors the real-time binding of protein ligands to the immobilized target. Detection is achieved by measuring refractive index changes very close to the sensor surface. When the refractive index is altered, the angle at which plasmon resonance occurs changes and this change directly correlates with the amount of protein interacting with the surface. A BIAcore 2000 is conveniently used. […]
(§2) Biotinylated heparin is immobilized on the biosensor chip. […] Solutions containing potential protein ligands of interest are injected over the sensor chip surface, and the binding is measured in real time (Fernig, In: Proteoglycan protocols, Ed. R. V. Iozzo, Humana Press, Totowa, N.J., USA, 2001). Baculovirus expressed recombinant human IL-4 (rhIL-4) and baculovirus expressed recombinant human IL-5 (rhIL-5) readily bind to heparin immobilized by this method (see PCT/AU2005/000551). […] Similarly, recombinant human eotaxin-1 (CCL11) expressed in E. coli binds readily to immobilized heparin and binding is specific as there is little eotaxin binding to sensor chips lacking heparin (see 30544601 PCT glycan151). […]

Human leukocyte elastase = target: T2, Human leukocyte elastase (Homo sapiens, UniProt P08246); test: Human leukocyte elastase fluorogenic substrate assay; type: biochemical; conditions: elastase 5 nM/well, MeOSuc-Ala-Ala-Pro-Val-amido-methylcoumarin 20 μM/well, pH 7.4, 37° C., 60 minutes; read-out: Inhibition of Elastase activity IC50
T2 sequence (P08246 30-267): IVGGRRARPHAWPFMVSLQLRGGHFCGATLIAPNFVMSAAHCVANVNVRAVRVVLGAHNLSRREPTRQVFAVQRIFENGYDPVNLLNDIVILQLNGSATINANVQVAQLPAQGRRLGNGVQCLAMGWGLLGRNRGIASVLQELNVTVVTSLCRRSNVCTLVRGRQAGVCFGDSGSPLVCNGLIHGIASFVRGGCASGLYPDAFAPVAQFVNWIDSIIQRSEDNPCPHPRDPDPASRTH
Method: Elastase is a protein that is a potential target for the treatment of COPD. Elastase assays were performed in 96-well plastic microplates for easy quantification by the fluorescent plate reader. Human leukocyte elastase (5 nM/well) was incubated in the presence ofrabsence of sulfated polysaccharides, with the fluorogenic substrate MeOSuc-Ala-Ala-Pro-Val-amido-methylcoumarin (20 μM/well) in a sodium phosphate buffer, pH 7.4. The mixture was incubated at 37° C. for 60 minutes before the reaction was stopped by the addition of 10 μL/well of […] acetic acid and the mixture transferred to a 96-well microplate with fluorescence being measured using an excitation wavelength of 355 nm and an emission wavelength of 460 nm. Various concentrations of inhibitors were used to allow the calculation of the concentration of anionic oligosaccharide conjugate required to inhibit enzyme activity by 50% (IC50). […] The linked xylopentaose series were not very effective inhibitors of elastase activity. In this assay heparin has an IC50 of approximately 200 nM (Table 6).

[1] = target: T3, recombinant human IL-4 (rhIL-4) (Homo sapiens, UniProt P05112); test: BIAcore: inhibition of IL-4 binding to a heparin chip; conditions: End point heparin
T3 construct: host or cells: baculovirus expression system
T3 sequence (P05112 25-153): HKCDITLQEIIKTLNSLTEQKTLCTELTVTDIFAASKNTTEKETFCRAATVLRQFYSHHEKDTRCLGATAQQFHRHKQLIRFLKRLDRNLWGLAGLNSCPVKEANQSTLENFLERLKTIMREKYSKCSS
Text: as §1, §2

[2] = target: T4, recombinant human IL-5 (rhIL-5) (Homo sapiens, UniProt P05113); test: BIAcore: inhibition of IL-5 binding to a heparin chip; conditions: Biotin-heparin
T4 construct: host or cells: baculovirus expression system
T4 sequence (P05113 20-134): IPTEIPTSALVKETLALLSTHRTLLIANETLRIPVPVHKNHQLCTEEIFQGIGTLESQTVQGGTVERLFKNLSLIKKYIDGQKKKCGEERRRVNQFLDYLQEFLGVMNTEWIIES
Text: as §1, §2

IL-8 (CXCL8) = target: T5, IL-8 (CXCL8) (Homo sapiens, UniProt P10145); test: BIAcore: inhibition of IL-8 binding to immobilized heparin; conditions: % relative to heparin concentration required to inhibit chemokine binding by 50%; heparin set at 100%
T5 construct: host or cells: E. coli
T5 sequence (P10145 21-99): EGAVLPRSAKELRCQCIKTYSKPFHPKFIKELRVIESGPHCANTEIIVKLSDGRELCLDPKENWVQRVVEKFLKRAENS
Text: as §1, §2

MCP-1 (CCL2) = target: T6, MCP-1 (CCL2) (Homo sapiens, UniProt P13500); test: BIAcore: inhibition of MCP-1 binding to immobilized heparin; conditions: % relative to heparin concentration required to inhibit chemokine binding by 50%; heparin set at 100%
T6 construct: host or cells: E. coli
T6 sequence (P13500 24-99): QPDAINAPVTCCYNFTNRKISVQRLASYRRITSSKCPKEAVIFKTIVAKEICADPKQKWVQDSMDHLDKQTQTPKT
Text: as §1, §2

Heparin
Concentration for 50% inhibition of Eotaxin-2 binding to heparin chip, as % of heparin's (eotaxin-2 (CCL24)): 100%
IC50 (Human leukocyte elastase): ~200 nM
IC50 [1]: 3300 nM
IC50 [2]: 37 nM
Concentration for 50% inhibition of chemokine binding relative to heparin (IL-8 (CXCL8)): 100%
IC50 relative to heparin (% of heparin IC50) (MCP-1 (CCL2)): 100%

Reference: patent publication US8597632B2, “Anionic oligosaccharide conjugates” (Glycan Biosciences LLC, priority 2008, dated 2013)
